Results as given in patent US11542316B2, “S-Arrestin peptides and therapeutic uses thereof” (APITOPE INTERNATIONAL NV, priority 2017, dated 2023).
Ends that are not written are not given here.

test system: SAg-specific hybridoma cells / T cell line with VAVY APC; experiment: Antigen Processing Independent Presentation System (APIPS) assay, fresh or fixed VAVY APC; format: cell-based, DR3 mice; conditions: DR3 hybridoma clone (IL-2, 48 h) or T cell line (IFN-γ, 24 h)
Outline: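 SAg-specific hybridomas (5×10^4) or peptide-restimulated T cell lines from immunized DR3 mice were cultured with fresh or 0.5% paraformaldehyde-fixed (5 min, RT) VAVY APCs and peptide (10 or 25 μg/ml). Read-out: IL-2 ELISA at 48 h for hybridomas, IFN-γ ELISA at 24 h for T cell lines.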

For KKKLTFRRDLYFSRVQVYKKK-NH2 [HIP-17J-KKK], which “behaves as apitope (response to peptide presented by fresh or fixed APC)” value (shortened to “behaves as apitope”) is on record?
The value was “behave as apitopes”.

How did the “behaves as apitope” value turn out when “KKKVIFKKISRDKSVTIYLGKKK-NH2 [HIP-115NE3-KKK]” was run?
Its value is “behave as apitopes”.

How did the “behaves as apitope” value turn out when “LPLLANNRERRGIA-NH2 [HIP-24HM3, LPLLANNRERRGIA]” was run?
Its value is “behave as apitopes”.

How did the “behaves as apitope” value turn out when “LTKTLTLLPLLANNRERR-NH2 [HIP-24DG, LTKTLTLLPLLANNRERR]” was run?
Its value is “behave as apitopes”.

“VIFKKISRDKSVTIYLG-NH2 [HIP-115NE3, VIFKKISRDKSVTIYLG]” was tested. Which “behaves as apitope” value did it give?
Its value is “behave as apitopes”.
